Counter-ions that a name gives are not always drawn.
Structure (SMILES): O=C(CN1CCN(c2cncc(Cl)n2)CC1)N1CCc2nn(-c3ccc(C(F)(F)F)cn3)cc2C1 [compound 108, 2-(6′-chloro-2,3,5,6-tetrahydro[1,2′]bipyrazinyl-4-yl)-1-[2-(5-trifluoromethylpyridin-2-yl)-2,4,6,7-tetrahydropyrazolo[4,3-c]pyridin-5-yl]ethanone]
- melting point: 185 to 186 °C

Structure (SMILES): COC(=O)c1ccc(N2C[C@@H](C)N(CC(=O)N3CCc4nn(-c5ccccc5)cc4C3)[C@@H](C)C2)nc1 (as salt: HCl) [compound 23, 6-{(3S,5R)-3,5-dimethyl-4-[2-oxo-2-(2-phenyl-2,4,6,7-tetrahydropyrazolo[4,3-c]pyridin-5-yl)ethyl]piperazin-1-yl}nicotinic acid methyl ester]
- melting point: 210 to 212 °C

Structure (SMILES): C[C@@H]1CN(c2ccc(C(F)(F)F)cn2)C[C@H](C)N1CC(=O)N1CCc2nn(-c3ccccn3)cc2C1 [compound 118, 2-[(2S,6R)-2,6-dimethyl-4-(5-trifluoromethylpyridin-2-yl)piperazin-1-yl]-1-(2-pyridin-2-yl-2,4,6,7-tetrahydropyrazolo[4,3-c]pyridin-5-yl)ethanone]
- melting point: 165 to 166 °C

Structure (SMILES): O=C(CN1CC2CCC(C1)N2c1ncc(F)cn1)N1CCc2nc(-c3cccnc3)sc2C1
- melting point: 200 to 202 °C

Structure (SMILES): C[C@@H]1CN(CC(=O)N2CCc3nn(-c4ccccc4)cc3C2)[C@@H](C)CN1c1ccc(C(=O)O)cn1 [compound 53, 6-{(2R,5S)-2,5-dimethyl-4-[2-oxo-2-(2-phenyl-2,4,6,7-tetrahydropyrazolo[4,3-c]pyridin-5-yl)ethyl]piperazin-1-yl}nicotinic acid]
- melting point: 165 to 167 °C

Structure (SMILES): O=C(CN1CC2CCC(C1)N2c1ncc(F)cn1)N1CCc2c(cnn2-c2ccc(F)cc2)C1
- melting point: 151 to 152 °C

Structure (SMILES): O=C(CN1CC2CCC(C1)N2c1ccc(-c2noc(=O)[nH]2)cn1)N1CCc2nc(-c3ccccc3)sc2C1
- melting point: 215 to 218 °C

Structure (SMILES): O=C(CN1CCCN(c2cccnc2)CC1)N1CCc2nc(-c3ccccc3)sc2C1 (as salt: HCl) [compound 30, 1-(2-phenyl-6,7-dihydro-4H-thiazolo[5,4-c]pyridin-5-yl)-2-(4-pyridin-3-yl-[1,4]diazepan-1-yl)ethanone]
- melting point: 142 to 145 °C

Structure (SMILES): CC(C)OC(=O)c1ccc(N2C[C@@H](C)N(CC(=O)N3CCc4nn(-c5ccccc5)cc4C3)[C@@H](C)C2)nc1 [compound 98, 6-{(3S,5R)-3,5-dimethyl-4-[2-oxo-2-(2-phenyl-2,4,6,7-tetrahydropyrazolo[4,3-c]pyridin-5-yl)ethyl]piperazin-1-yl}nicotinic acid isopropyl ester]
- melting point: 135 to 136 °C

Structure (SMILES): O=C(CN1CC2CC1CN2c1ccc(C(F)(F)F)nn1)N1CCc2nn(-c3ccc(C(F)(F)F)cn3)cc2C1 (stereo not drawn) [compound 107, 2-[5-(6-trifluoromethylpyridazin-3-yl)-2,5-diazabicyclo[2.2.1]hept-2-yl]-1-[2-(5-trifluoromethylpyridin-2-yl)-2,4,6,7-tetrahydropyrazolo[4,3-c]pyridin-5-yl]ethanone]
- melting point: 140 to 141 °C

Structure (SMILES): O=C(CN1CC2CCC(C1)N2c1ncc(F)cn1)N1CCc2cc(-c3ccccc3)oc2C1
- melting point: 165 to 167 °C

Structure (SMILES): O=C(CN1CC2CCC(C1)N2c1cncnc1)N1CCc2nn(-c3ccccc3)cc2C1
- melting point: 197 to 198 °C

Structure (SMILES): C[C@@H]1CN(c2ccc(C(=O)O)cn2)C[C@H](C)N1CC(=O)N1CCc2nn(C(C)(C)C)cc2C1 [compound 105, 6-{(3S,5R)-4-[2-(2-tert-butyl-2,4,6,7-tetrahydropyrazolo[4,3-c]pyridin-5-yl)-2-oxoethyl]-3,5-dimethylpiperazin-1-yl}nicotinic acid]
- melting point: 120 to 121 °C

Structure (SMILES): O=C(CN1CC2CCC(C1)N2c1ccc(C(F)(F)F)cn1)N1CCc2nc(-c3ccncc3)sc2C1
- melting point: 183 to 185 °C

Structure (SMILES): O=C(CN1CC2CCC(C1)N2c1ccc(C(F)(F)F)cn1)N1CCc2nn(-c3ccccc3)cc2C1
- melting point: 212 to 213 °C

Structure (SMILES): O=C(CN1CCN(c2ccc(C(F)(F)F)cn2)C(=O)C1)N1CCc2sc(-c3ccccc3)nc2C1 [compound 82, 4-[2-oxo-2-(2-phenyl-6,7-dihydro-4H-thiazolo[4,5-c]pyridin-5-yl)ethyl]-1-(5-trifluoromethylpyridin-2-yl)piperazin-2-one]
- melting point: 140 to 142 °C

Structure (SMILES): C[C@@H]1CN(CC(=O)N2CCc3nn(-c4ccccc4)cc3C2)[C@@H](C)CN1c1ccc(C#N)cn1 [compound 52, 6-{(2R,5S)-2,5-dimethyl-4-[2-oxo-2-(2-phenyl-2,4,6,7-tetrahydropyrazolo[4,3-c]pyridin-5-yl)ethyl]piperazin-1-yl}nicotinonitrile]
- melting point: 156 to 159 °C

Structure (SMILES): COc1ccc(-c2nc3c(s2)CN(C(=O)CN2CC4CC2CN4c2ccc(C(F)(F)F)cn2)CC3)cc1 (stereo not drawn) [compound 133, 1-[2-(4-methoxyphenyl)-6,7-dihydro-4H-thiazolo[5,4-c]pyridin-5-yl]-2-[5-(5-trifluoromethylpyridin-2-yl)-2,5-diazabicyclo[2.2.1]hept-2-yl]ethanone]
- melting point: 70 to 73 °C

Structure (SMILES): C[C@@H]1CN(c2ccc(C(F)(F)F)cn2)C[C@H](C)N1CC(=O)N1CCc2cc(-c3ccccc3)oc2C1 [compound 97, 2-[(2S,6R)-2,6-dimethyl-4-(5-trifluoromethylpyridin-2-yl)piperazin-1-yl]-1-(2-phenyl-4,7-dihydro-5H-furano[2,3-c]pyridin-6-yl)ethanone]
- melting point: 162 °C

Structure (SMILES): COC(=O)c1ccc(N2C[C@@H](C)N(CC(=O)N3CCc4c(cnn4C(C)(C)C)C3)[C@@H](C)C2)nc1 [compound 92, 6-{(3S,5R)-4-[2-(1-tert-butyl-1,4,6,7-tetrahydropyrazolo[4,3-c]pyridin-5-yl)-2-oxoethyl]-3,5-dimethylpiperazin-1-yl}nicotinic acid methyl ester]
- melting point: 134 to 135 °C

Structure (SMILES): O=C(CN1CCN(c2ccc(C(F)(F)F)cn2)C(=O)C1)N1CCc2nc(-c3ccccc3)[nH]c2C1 [compound 78, 4-[2-oxo-2-(2-phenyl-3,4,6,7-tetrahydroimidazo[4,5-c]pyridin-5-yl)ethyl]-1-(5-trifluoromethylpyridin-2-yl)piperazin-2-one]
- melting point: 198 to 200 °C

Structure (SMILES): COC(=O)c1ccc(N2CC3CCC(C2)N3CC(=O)N2CCc3nc(-c4ccccc4)sc3C2)nc1
- melting point: 162 to 163 °C

Structure (SMILES): COC(=O)c1ccc(N2C3CCC2CN(CC(=O)N2CCc4nc(-c5ccc(OC)cc5)sc4C2)C3)nc1
- melting point: 159 to 160 °C

Structure (SMILES): C[C@@H]1CN(c2ccc(C(=O)O)cn2)C[C@H](C)N1CC(=O)N1CCc2nn(-c3ccccc3)cc2C1 (as salt: HCl) [compound 21, 6-{(3S,5R)-3,5-dimethyl-4-[2-oxo-2-(2-phenyl-2,4,6,7-tetrahydropyrazolo[4,3-c]pyridin-5-yl)ethyl]piperazin-1-yl}nicotinic acid]
- melting point: 209 to 211 °C

Structure (SMILES): COC(=O)c1ccc(N2CCN(CC(=O)N3CCc4nc(-c5ccccc5)sc4C3)CC2=O)nc1 [compound 25, 6-{2-oxo-4-[2-oxo-2-(2-phenyl-6,7-dihydro-4H-thiazolo[5,4-c]pyridin-5-yl)ethyl]piperazin-1-yl}nicotinic acid methyl ester]
- melting point: 191 to 192 °C

Structure (SMILES): C[C@@H]1CN(c2ccc(C(F)(F)F)cn2)C[C@H](C)N1CC(=O)N1CCc2nc(-c3ccc(F)cc3)[nH]c2C1 [compound 124, 2-[(2S,6R)-2,6-dimethyl-4-(5-trifluoromethylpyridin-2-yl)piperazin-1-yl]-1-[2-(4-fluorophenyl)-3,4,6,7-tetrahydroimidazo[4,5-c]pyridin-5-yl]ethanone]
- melting point: 145 to 147 °C

Structure (SMILES): COC(=O)c1ccc(N2C3CCC2CN(CC(=O)N2CCc4nn(-c5ccc(C(F)(F)F)cn5)cc4C2)C3)nc1
- melting point: 217 to 218 °C

Structure (SMILES): C[C@@H]1CN(c2ccc(-c3nnnn3C)cn2)C[C@H](C)N1CC(=O)N1CCc2nn(-c3ccccc3)cc2C1 [compound 86, 2-{(2S,6R)-2,6-dimethyl-4-[5-(1-methyl-1H-tetrazol-5-yl)pyridin-2-yl]piperazin-1-yl}-1-(2-phenyl-2,4,6,7-tetrahydropyrazolo[4,3-c]pyridin-5-yl)ethanone]
- melting point: 198 to 199 °C

Structure (SMILES): C[C@@H]1CN(CC(=O)N2CCc3nc(-c4ccccc4)sc3C2)[C@@H](C)CN1c1ccc(C#N)cn1 [compound 59, 6-{(2R,5S)-2,5-dimethyl-4-[2-oxo-2-(2-phenyl-6,7-dihydro-4H-thiazolo[5,4-c]pyridin-5-yl)ethyl]piperazin-1-yl}nicotinonitrile]
- melting point: 159 to 160 °C

Structure (SMILES): CCOC(=O)c1ccc(N2C[C@@H](C)N(CC(=O)N3CCc4nn(-c5ccccc5)cc4C3)[C@@H](C)C2)nc1 (as salt: HCl) [compound 79, 6-{(3S,5R)-3,5-dimethyl-4-[2-oxo-2-(2-phenyl-2,4,6,7-tetrahydropyrazolo[4,3-c]pyridin-5-yl)ethyl]piperazin-1-yl}nicotinic acid ethyl ester]
- melting point: 235 to 236 °C

Structure (SMILES): O=C(CN1CC2CCC(C1)N2c1ccc(C(F)(F)F)cn1)N1CCc2nn(-c3ccccn3)cc2C1
- melting point: 170 to 171 °C

Structure (SMILES): Cn1cc2c(n1)CCN(C(=O)CN1CC3CCC(C1)N3c1ncc(F)cn1)C2
- melting point: 147 to 149 °C

Structure (SMILES): C[C@@H]1CN(c2ccc(-c3nnco3)cn2)C[C@H](C)N1CC(=O)N1CCc2nn(-c3ccccc3)cc2C1 [compound 90, 2-[(2S,6R)-2,6-dimethyl-4-(5-[1,3,4]oxadiazol-2-ylpyridin-2-yl)piperazin-1-yl]-1-(2-phenyl-2,4,6,7-tetrahydropyrazolo[4,3-c]pyridin-5-yl)ethanone]
- melting point: 189 to 190 °C

Structure (SMILES): COc1ccc(-c2nc3c(s2)CN(C(=O)CN2CC4CCC(C2)N4c2ncc(F)cn2)CC3)cc1
- melting point: 203 to 207 °C

Structure (SMILES): C[C@@H]1CN(c2ccc(C(F)(F)F)cn2)C[C@H](C)N1CC(=O)N1CCc2nn(-c3ccc(C(F)(F)F)cn3)cc2C1 [compound 103, 2-[(2S,6R)-2,6-dimethyl-4-(5-trifluoromethylpyridin-2-yl)piperazin-1-yl]-1-[2-(5-trifluoromethylpyridin-2-yl)-2,4,6,7-tetrahydropyrazolo[4,3-c]pyridin-5-yl]ethanone]
- melting point: 190 to 191 °C

Structure (SMILES): C[C@@H]1CN(c2ccc(Cl)cn2)C[C@H](C)N1CC(=O)N1CCc2nn(-c3ccc(C(F)(F)F)cn3)cc2C1 [compound 112, 2-[(2S,6R)-4-(5-chloropyridin-2-yl)-2,6-dimethylpiperazin-1-yl]-1-[2-(5-trifluoromethylpyridin-2-yl)-2,4,6,7-tetrahydropyrazolo[4,3-c]pyridin-5-yl]ethanone]
- melting point: 165 to 166 °C
